Results on 45 compounds are retold here after patent US7763656B2, “Use of Acetylamino benzoic acid compounds for nonsense suppression and the treatment of disease” (PTC Therapeutics, Inc., priority 2002, dated 2010).

Where “and” joins values, the source holds several entries; their conditions need not be identical. Equal values may be shown once.

Consider `Cc1ccc(OCC(=O)Nc2cccc(C(=O)O)c2)cc1C` [Compound 1, 3-[2-(3,4-dimethyl-phenoxy)-acetylamino]-benzoic acid], for which the melting point (usually the temperature, or range, at which the solid turns liquid) fell in the range of 201 to 202 °C.

On to `CC(C)c1ccccc1SCC(=O)Nc1cccc(C(=O)O)c1` [Compound 3, 3-[2-(2-isopropyl-phenylsulfanyl)-acetylamino]-benzoic acid], for which the melting point lay within 178 to 179 °C.

For the compound `Cc1cc(OCC(=O)Nc2cccc(C(=O)O)c2)ccc1C(C)C` [Compound 4, 3-[2-(4-isopropyl-3-methyl-phenoxy)-acetylamino]-benzoic acid], the melting point is 191 to 192 °C and 188 to 189 °C. Compound `Cc1cc(OCC(=O)Nc2cccc(C(=O)O)c2)cc(C(C)C)c1` [Compound 5, 3-[2-(3-isopropyl-5-methyl-phenoxy)-acetylamino]-benzoic acid] returned a melting point of 183 to 184 °C. The result for `CC(C)c1cccc(OCC(=O)Nc2cccc(C(=O)O)c2)c1` [Compound 6, 3-[2-(3-isopropyl-phenoxy)-acetylamino]-benzoic acid] reads 166 to 167 °C; that for `CC(C)c1ccc(OCC(=O)Nc2cccc(C(=O)O)c2)cc1` [Compound 7, 3-[2-(4-isopropyl-phenoxy)-acetylamino]-benzoic acid], 171 to 174 °C. As to `Cc1cc(OCC(=S)Nc2cccc(C(=O)O)c2)ccc1C(C)C` [Compound 8, 3-[2-(4-isopropyl-3-methyl-phenoxy)-thioacetylamino]-benzoic acid], the melting point is 174 to 176 °C and 174 to 175 °C. As for `Cc1ccccc1-c1ccc(OCC(=O)Nc2cccc(C(=O)O)c2)cc1` [Compound 9, 3-[2-(2’-methyl-biphen-4-yloxy)-acetylamino]-benzoic acid], the figure is 220 to 221 °C. The result for `Cc1cccc(-c2ccc(OCC(=O)Nc3cccc(C(=O)O)c3)cc2)c1` [Compound 10, 3-[2-(3’-methyl-biphen-4-yloxy)-acetylamino]-benzoic acid] reads 225 to 226 °C. Compound `O=C(COc1ccc(Cl)c(Cl)c1)Nc1cccc(C(=O)O)c1` [Compound 12, 3-[2-(3,4-dichlorophenoxy)-acetylamino]-benzoic acid] had a melting point of 219 to 221 °C. `O=C(COc1ccc(-c2ccccc2)cc1)Nc1cccc(C(=O)O)c1` [Compound 13, 3-[2-(biphen-4-yloxy)-acetylamino]-benzoic acid]: the melting point fell in the range of 245 to 246 °C. As for `CCC(C)(C)c1ccc(OCC(=O)Nc2cccc(C(=O)O)c2)cc1` [Compound 15, 3-{2-[4-(1,1-dimethyl-propyl)-phenoxy]acetylamino)-benzoic acid], the figure is 164 to 165 °C; as for `CCCc1ccc(OCC(=O)Nc2cccc(C(=O)O)c2)cc1` [Compound 16, 3-[2-(4-propyl-phenoxy)-acetylamino]-benzoic acid], 185 to 186 °C; as for `CCc1ccc(OCC(=O)Nc2cccc(C(=O)O)c2)cc1` [Compound 18, 3-[2-(4-ethyl-phenoxy)-acetylamino]-benzoic acid], 209 to 211 °C.

Consider `O=C(COc1ccc2c(c1)CCC2)Nc1cccc(C(=O)O)c1` [Compound 19, 3-[2-(indan-5-yloxy)-acetylamino]-benzoic acid], for which the melting point fell in the range of 203 to 204 °C. Compound `O=C(COc1ccc2c(c1)CCCC2)Nc1cccc(C(=O)O)c1` [Compound 20, 3-[2-(5,6,7,8-tetrahydro-naphthalen-2-yloxy)-acetylamino]-benzoic acid] yielded a melting point of 199 to 201 °C. The result for `CC(C)(c1ccccc1)c1ccc(OCC(=O)Nc2cccc(C(=O)O)c2)cc1` [Compound 22, 3-{2-[4-(1-methyl-1-phenyl-ethyl)-phenoxy]-acetylamino}-benzoic acid] reads 207 to 208 °C; that for `O=C(COc1ccc(C2CCCC2)cc1)Nc1cccc(C(=O)O)c1` [Compound 24, 3-[2-(4-cyclopentyl-phenoxy)-acetylamino]-benzoic acid], 212 to 213 °C; that for `Cc1cc(OCC(=O)Nc2cccc(C(=O)O)c2)ccc1Cl` [Compound 25, 3-[2-(4-chloro-3-methyl-phenoxy)-acetylamino]-benzoic acid], 197 to 198 °C. As for `CCOc1ccc(OCC(=O)Nc2cccc(C(=O)O)c2)cc1` [Compound 27, 3-[2-(4-ethoxy-phenoxy)-acetylamino]-benzoic acid], the figure is 191 to 192 °C. Turning to `O=C(COc1ccc(C#Cc2ccccc2)cc1)Nc1cccc(C(=O)O)c1` [Compound 28, 3-[2-(4-phenylethynyl-phenoxy)-acetylamino]-benzoic acid], the melting point was 242 to 244 °C. For the compound `CC(C)c1ccc(C(=O)CC(=O)Nc2cccc(C(=O)O)c2)cc1` [Compound 29, 3-[3-(4-isopropyl-phenyl)-3-oxo-propionylamino]-benzoic acid], the melting point was 262 to 263 °C.

In turn, `Cc1cc(OCC(=O)Nc2cccc(C(=O)O)c2Cl)ccc1C(C)C` [Compound 30, 2-chloro-3-[2-(4-isopropyl-3-methyl-phenoxy)-acetylamino]-benzoic acid] showed a melting point of 161 to 162 °C. In the case of `Cc1cc(OCC(=O)Nc2cc(C(=O)O)ccc2Cl)ccc1C(C)C` [Compound 31, 4-chloro-3-[2-(4-isopropyl-3-methyl-phenoxy)-acetylamino]-benzoic acid], the melting point lay within 218 to 220 °C. Compound `O=C(COc1ccc(C(=O)c2ccccc2)cc1)Nc1cccc(C(=O)O)c1` [Compound 32, 3-[2-(4-benzoyl-phenoxy)-acetylamino]-benzoic acid] yielded a melting point of 208 to 210 °C. The result for `CC(C)c1ccc(OC2CCN(c3cccc(C(=O)O)c3)C2=O)cc1` (stereo not drawn) [Compound 33, 3-[3-(4-Isopropyl-phenoxy)-2-oxo-pyrrolidin-1-yl]-benzoic acid] reads 210 to 211 °C. As for `CC(C)c1ccc(OC2CCN(c3cccc(C(=O)[O-])c3)C2=O)cc1.[Na+]` (stereo not drawn) [Compound 34, 3-[3-(4-Isopropyl-phenoxy)-2-oxo-pyrrolidin-1-yl]-benzoic acid Sodium Salt], the figure is 164 to 165 °C; as for `O=C(O)c1cccc(N2CCC(Oc3ccc4c(c3)CCC4)C2=O)c1` (stereo not drawn) [Compound 35, 3-[3-(Indan-5-yloxy)-2-oxo-pyrrolidin-1-yl]-benzoic acid], 182 to 184 °C; as for `O=C(O)c1cccc(N2CCC(Oc3ccc4c(c3)OCO4)C2=O)c1` (stereo not drawn) [Compound 36, 3-[3-(Benzo[1,3]dioxol-5-yloxy)-2-oxo-pyrrolidin-1-yl]-benzoic acid], 194 to 197 °C. As to `O=C(O)c1cccc(N2CCC(Oc3ccc(Oc4ccc(C(F)(F)F)cc4)cc3)C2=O)c1` (stereo not drawn) [Compound 37, 3{2-Oxo-3-[4-(4-trifluoromethyl-phenoxy)-phenoxy]-pyrrolidin-1-yl}-benzoic acid], the melting point lay within 175 to 178 °C. The result for `CCc1cccc(OC2CCN(c3cccc(C(=O)O)c3)C2=O)c1` (stereo not drawn) [Compound 38] reads 150 to 152 °C. `O=C(O)c1cccc(N2CCC(Oc3ccc(Oc4ccccc4)cc3)C2=O)c1` (stereo not drawn) [Compound 39, 3-[2-Oxo-3-(4-phenoxy-phenoxy)-pyrrolidin-1-yl]-benzoic acid] displayed a melting point of 185 to 187 °C. As for `Cc1ccc(C(C)C)c(OCC(=O)Nc2cccc(C(=O)O)c2)c1` [Compound 40, 3-[2-(2-Isopropyl-5-methyl-phenoxy)-acetylamino]-benzoic acid], the figure is 211 to 213 °C; as for `Cc1ccc(C(C)C)c(OC(C)C(=O)Nc2cccc(C(=O)O)c2)c1` (stereo not drawn) [Compound 41, 3-[2-(2-Isopropyl-5-methyl-phenoxy)-propionylamino]-benzoic acid], 161 to 163 °C. As for `Cc1cccc(OCC(=O)Nc2cccc(C(=O)O)c2)c1` [Compound 42, 3-[2-(5-Methyl-phenoxy)-acetylamino]-benzoic acid], the figure is 200 to 201 °C.

In the case of `CC(C)c1ccccc1OCC(=O)Nc1cccc(C(=O)O)c1` [Compound 43, 3-[2-(2-Isopropyl-phenoxy)-acetylamino]-benzoic acid], the melting point lay within 168 to 170 °C.

With `COc1ccc(C(=O)O)cc1NC(=O)COc1cc(C)ccc1C(C)C` [Compound 44, 3-[2-(2-Isopropyl-5-methyl-phenoxy)-acetylamino]-4-methoxy-benzoic acid], the melting point fell in the range of 253 to 255 °C. In turn, `Cc1ccc(C(C)C)cc1OCC(=O)Nc1cccc(C(=O)O)c1` [Compound 45, 3-[2-(5-Isopropyl-2-methyl-phenoxy)-acetylamino]-benzoic acid] showed a melting point of 211 to 213 °C.

In turn, `Cc1cc(OC(C)C(=O)Nc2cccc(C(=O)O)c2)ccc1C(C)C` (stereo not drawn) [Compound 47, 3-[2-(4-Isopropyl-3-methyl-phenoxy)-propionylamino]-benzoic acid] showed a melting point of 186 to 187 °C. For `Cc1ccc(C(=O)O)cc1NC(=O)COc1ccc(C(C)C)c(C)c1` [Compound 48, 3-{2-(4-Isopropyl-3-methyl-phenoxy)-acetylamino]-4-methyl-benzoic acid], the melting point lay in the range of 188 to 189 °C. `O=C(COc1ccc(C(=O)O)cc1)Nc1cccc(C(=O)O)c1` [Compound 50, 3-[2-(4-Carboxy-phenoxy)-acetylamino]-benzoic acid] returned a melting point of 260 to 261 °C.

Regarding `O=C(COc1ccc2ccccc2c1)Nc1cccc(C(=O)O)c1` [Compound 52, 3-[2-(Naphthalen-2-yloxy)-acetylamino]-benzoic acid], the melting point lay in the range of 223 to 224 °C.

`O=C(COc1ccc2c(c1)OCO2)Nc1cccc(C(=O)O)c1` [Compound 53, 3-[2-(Benzo[1,3]dioxol-5-yloxy)-acetylamino]-benzoic acid] registered a melting point of 191 to 194 °C.

For the compound `O=C(COc1ccc(Cl)c(F)c1)Nc1cccc(C(=O)O)c1` [Compound 54, 3-[2-(4-Chloro-3-fluoro-phenoxy)-acetylamino]-benzoic acid], the melting point was in the range of 242 to 244 °C. With `O=C(COc1ccc(CO)cc1)Nc1cccc(C(=O)O)c1` [Compound 55, 3-[2-(4-Hydroxymethyl-phenoxy)-acetylamino]-benzoic acid], the melting point lay in the range of 209 to 212 °C.
